According to patent publication US20120302616A1, “METHOD OF TREATMENT OF OBSESSIVE COMPULSIVE DISORDER WITH ONDANSETRON” (priority 2010, published 2012):
Several values for one entry are separate records, joined by “and”; a condition that tells them apart may be missing. Identical values can stand only once.

System: patients with treatment-resistant OCD
Assay: Ondansetron augmentation of SRI therapy, single-blind 12-week study with 4-week discontinuation follow-up (YBOCS, CGI)
Assay type: in vivo, human
Design: reduction in CGI-I from baseline: concentration or dose not given beside the values
Settings: for CGI-I Score / YBOCS % Reduction / YBOCS Score: individual patients (21); for Compulsion Subdomain YBOCS % Reduction / Obsession Subdomain YBOCS % Reduction / Compulsion Subdomain YBOCS Score / Obsession Subdomain YBOCS Score: individual patients
Method: Twenty-one patients with a DSM-IV diagnosis of treatment-resistant OCD, under stable treatment with SRIs approved by the FDA for OCD therapy, received 12 weeks of single-blind ondansetron augmentation initiated at a dose of 0.25 mg twice daily for 2 weeks, and titrated to 0.5 mg twice daily for 10 weeks. Patients were rated every two weeks using the Yale Brown Obsessive Compulsive Scale (YBOCS) and Clinical Global Impressions Scale (CGI). Treatment-resistant patients were defined as having completed an adequate trial of SRIs at a moderate to high dose for at least 12 weeks and still having a YBOCS severity of >24, and CGI-Severity of ≧4. Treatment response was defined as an additional 25% reduction in YBOCS score from YBOCS score at the initiation of ondansetron augmentation, an end of treatment (EOT) period YBOCS of ≦24, and CGI-Improvement (CGI-I) of ≦2. Additionally, ondansetron was discontinued after 12 weeks and patients were followed up for another 4 weeks for relapse in YBOCs symptoms. The obsession and compulsion subdomains of the Y-BOCS were also analyzed to determine whether ondansetron would selectively affect one subdomain or the other.

[1] = Week 14 (after discontinuation), Non-Responders
[2] = Week 14 (after discontinuation), Responders
[3] = Week 16 (after discontinuation), Non-Responders
[4] = Week 16 (after discontinuation), Responders

SMILES: Cc1nccn1CC1CCc2c(c3ccccc3n2C)C1=O (stereo not shown) [ondansetron]
- tolerability of treatment (0.25 mg twice daily 2 weeks, then 0.5 mg twice daily 10 weeks): well tolerated
- CGI-I Score (6 Weeks): 2 (7×) and 3 (2×) and 5 (6×) and 1 (3×) and 4 (3×)
- YBOCS % Reduction (6 Weeks): 16.00% and 0.00% (3×) and 5.00%
- YBOCS Score (6 Weeks): 22 and 19 (3×) and 28 and 21 (2×) and 27 and 24 (2×) and 14 and 29 (3×) and 38 and 32 and 17 and 25 and 16 and 26 and 31
- Compulsion Subdomain YBOCS % Reduction (6 weeks, Non-Responders): −7.14% and 5.00% and −13.33% and −15.38% and 13.33% and 14.29% and 0.00% and 12.50% and −16.67%
- Obsession Subdomain YBOCS % Reduction (6 weeks, Non-Responders): 16.67% and 0.00% (3×) and 5.00% and −7.69% and −6.67% and 6.25% and 12.50%
- Compulsion Subdomain YBOCS % Reduction (6 weeks, Responders): 38.46% and 33.33% (2×) and 29.41% and 52.94% and 25.00% and 58.33% and 50.00% and 18.75% and 53.33% and 40.00% and 16.67%
- Obsession Subdomain YBOCS % Reduction (6 weeks, Responders): 26.67% and 35.29% and 25.00% (3×) and 31.25% and 33.33% and 23.08% and 20.00% and 29.41% and 28.57% and 15.38%
- CGI-I Score (12 Weeks): 1 (10×) and 5 (8×) and 4 and 2 (2×)
- YBOCS % Reduction (12 Weeks): 44.00% and 50.00% and 2.50% and −7.14%
- YBOCS Score (12 Weeks): 21 (2×) and 17 and 28 and 14 (2×) and 16 (3×) and 19 (2×) and 23 and 13 and 25 and 39 and 34 and 30 (2×) and 29 and 15 and 27
- average reduction in CGI-I scores for the whole group (12 weeks): 46%
- Compulsion Subdomain YBOCS % Reduction (12 weeks, Non-Responders): 7.14% and 0.00% (2×) and −26.67% and −23.08% and 6.67% and 14.29% and 12.50% and −8.33%
- Obsession Subdomain YBOCS % Reduction (12 weeks, Non-Responders): 16.67% and 14.29% and 5.00% and 0.00% (2×) and −7.69% and −7.14% and 12.50% (2×)
- Compulsion Subdomain YBOCS % Reduction (12 weeks, Responders): 38.46% and 46.67% (2×) and 41.18% and 58.82% and 45.00% and 58.33% and 64.29% and 43.75% and 53.33% and 33.33% and 41.67%
- Obsession Subdomain YBOCS % Reduction (12 weeks, Responders): 46.67% and 52.94% and 43.75% (2×) and 44.44% and 33.33% (3×) and 30.77% and 35.29% and 35.71% and 46.15%
- difference between YBOCS score at baseline and after 12 weeks (Non-responders): 2.9%
- Compulsion Subdomain YBOCS Score, Mean (Week 2, Non-Responders): 14.78
- Obsession Subdomain YBOCS Score, Mean (Week 2, Non-Responders): 14.67
- Compulsion Subdomain YBOCS Score (Week 2, Non-Responders): 15
- Obsession Subdomain YBOCS Score (Week 2, Non-Responders): 12
- Compulsion Subdomain YBOCS Score, Mean (Week 2, Responders): 11.33
- Obsession Subdomain YBOCS Score, Mean (Week 2, Responders): 12.58
- Compulsion Subdomain YBOCS Score (Week 2, Responders): 11 and 12 (5×) and 10 (3×) and 16 and 5 and 14
- Obsession Subdomain YBOCS Score (Week 2, Responders): 12 (4×) and 14 (3×) and 10 and 11 (2×) and 13 and 16
- Compulsion Subdomain YBOCS Score, Mean (Week 4, Non-Responders): 15.00
- Obsession Subdomain YBOCS Score, Mean (Week 4, Non-Responders): 14.44
- Compulsion Subdomain YBOCS Score (Week 4, Non-Responders): 15
- Obsession Subdomain YBOCS Score (Week 4, Non-Responders): 11
- Compulsion Subdomain YBOCS Score, Mean (Week 4, Responders): 10.08
- Obsession Subdomain YBOCS Score, Mean (Week 4, Responders): 11.50
- Compulsion Subdomain YBOCS Score (Week 4, Responders): 9 (3×) and 11 (2×) and 12 and 14 and 5 and 10 (2×) and 13 and 8
- Obsession Subdomain YBOCS Score (Week 4, Responders): 11 (3×) and 13 (4×) and 12 (2×) and 9 and 10 (2×)
- Compulsion Subdomain YBOCS Score, Mean (Week 6, Non-Responders): 15.00
- Obsession Subdomain YBOCS Score, Mean (Week 6, Non-Responders): 14.56
- Compulsion Subdomain YBOCS Score (Week 6, Non-Responders): 15
- Obsession Subdomain YBOCS Score (Week 6, Non-Responders): 10
- Compulsion Subdomain YBOCS Score, Mean (Week 6, Responders): 9.50
- Obsession Subdomain YBOCS Score, Mean (Week 6, Responders): 10.83
- Compulsion Subdomain YBOCS Score (Week 6, Responders): 8 (2×) and 10 (3×) and 12 and 15 and 5 and 7 (2×) and 13 and 9
- Obsession Subdomain YBOCS Score (Week 6, Responders): 11 (4×) and 12 (4×) and 9 (2×) and 10 (2×)
- Compulsion Subdomain YBOCS Score, Mean (Week 8, Non-Responders): 15.22
- Obsession Subdomain YBOCS Score, Mean (Week 8, Non-Responders): 14.44
- Compulsion Subdomain YBOCS Score (Week 8, Non-Responders): 13
- Obsession Subdomain YBOCS Score (Week 8, Non-Responders): 10
- Compulsion Subdomain YBOCS Score, Mean (Week 8, Responders): 8.83
- Obsession Subdomain YBOCS Score, Mean (Week 8, Responders): 10.00
- Compulsion Subdomain YBOCS Score (Week 8, Responders): 8 and 9 (2×) and 10 (3×) and 7 and 15 and 5 (2×) and 12 and 6
- Obsession Subdomain YBOCS Score (Week 8, Responders): 8 (2×) and 10 (5×) and 12 (3×) and 9 (2×)
- Compulsion Subdomain YBOCS Score, Mean (Week 10, Non-Responders): 15.44
- Obsession Subdomain YBOCS Score, Mean (Week 10, Non-Responders): 14.44
- Compulsion Subdomain YBOCS Score, Mean (Week 10, Responders): 8.17
- Obsession Subdomain YBOCS Score, Mean (Week 10, Responders): 9.33
- Compulsion Subdomain YBOCS Score (Week 10, Responders): 8 (3×) and 9 and 10 (2×) and 7 and 11 (2×) and 5 (2×) and 6
- Obsession Subdomain YBOCS Score (Week 10, Responders): 8 (3×) and 10 (4×) and 9 (4×) and 12
- Compulsion Subdomain YBOCS Score, Mean (Week 12, Non-Responders): 15.22
- Obsession Subdomain YBOCS Score, Mean (Week 12, Non-Responders): 14.22
- Compulsion Subdomain YBOCS Score, Mean (Week 12, Responders): 7.92
- Obsession Subdomain YBOCS Score, Mean (Week 12, Responders): 8.83
- Compulsion Subdomain YBOCS Score (Week 12, Responders): 8 (3×) and 10 (2×) and 7 (3×) and 11 and 5 (2×) and 9
- Obsession Subdomain YBOCS Score (Week 12, Responders): 8 (4×) and 9 (4×) and 10 (2×) and 11 and 7
- Compulsion Subdomain YBOCS Score, Mean [1]: 15.00
- Obsession Subdomain YBOCS Score, Mean [1]: 14.00
- Compulsion Subdomain YBOCS Score, Mean [2]: 10.67
- Obsession Subdomain YBOCS Score, Mean [2]: 11.25
- Compulsion Subdomain YBOCS Score [2]: 8 (2×) and 13 (3×) and 11 (3×) and 6 and 12 (2×) and 10
- Obsession Subdomain YBOCS Score [2]: 9 (2×) and 14 (2×) and 12 (3×) and 13 and 11 (2×) and 8 and 10
- Compulsion Subdomain YBOCS Score, Mean [3]: 14.78
- Obsession Subdomain YBOCS Score, Mean [3]: 13.67
- Compulsion Subdomain YBOCS Score, Mean [4]: 11.50
- Obsession Subdomain YBOCS Score, Mean [4]: 11.67
- Compulsion Subdomain YBOCS Score [4]: 8 (2×) and 13 (4×) and 14 and 12 (2×) and 15 and 6 and 11
- Obsession Subdomain YBOCS Score [4]: 9 (2×) and 15 and 13 and 12 (3×) and 14 (2×) and 8 and 11 (2×)
- overall ondansetron effects for obsessions versus compulsions (YBOCS subdomains): comparable
- reduction in CGI-I from baseline (responders, after 12 weeks): 77%
- reduction in YBOCS from baseline (responders, after 12 weeks): 44%
